From PubChem BioAssay AID743097 (Vanderbilt Specialized Chemistry Center, 2013) come the findings set out here.

A word on the EC50: it is the midpoint of the concentration-response curve.

Activity calls are given as the source filed them. No rule for the calls is given here.

Chain of Muscarinic acetylcholine receptor M1 (Homo sapiens) (P11229 whole entry, looked up): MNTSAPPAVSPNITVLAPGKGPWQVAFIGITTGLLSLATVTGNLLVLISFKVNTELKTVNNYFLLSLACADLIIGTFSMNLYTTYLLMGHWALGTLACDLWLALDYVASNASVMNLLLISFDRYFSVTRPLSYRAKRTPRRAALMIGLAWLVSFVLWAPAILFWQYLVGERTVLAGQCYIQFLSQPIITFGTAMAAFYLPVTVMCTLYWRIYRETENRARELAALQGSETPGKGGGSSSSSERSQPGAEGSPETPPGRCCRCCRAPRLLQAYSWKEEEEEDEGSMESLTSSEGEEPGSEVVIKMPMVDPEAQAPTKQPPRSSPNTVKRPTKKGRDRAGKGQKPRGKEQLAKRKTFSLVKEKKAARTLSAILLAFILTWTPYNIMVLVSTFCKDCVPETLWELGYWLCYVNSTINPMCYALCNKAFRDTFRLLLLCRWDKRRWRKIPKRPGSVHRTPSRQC

The first assay concerns the target Muscarinic acetylcholine receptor M1 (Homo sapiens) (UniProt P11229). In words: M1 receptor positive allosteric modulation, selectivity assay for M5 PAM discovery project, cell-based, human M1 (AID 743097). The conditions noted are these: CHO-K1 hM1, Fluo-4 calcium flux, ACh EC20 potentiation. Background: Calcium assays in cells follow changes in intracellular calcium, usually with a dye or a luminescent sensor.
In the case of `CCN(Cc1ccccc1C(F)(F)F)C(=O)C1(F)CCN(S(=O)(=O)c2ccc3[nH]ncc3c2)CC1`, the EC50 is 4.84 µM.
The same measure, in the same setting: with `CCN(Cc1ccccc1Cl)C(=O)C1CCN(S(=O)(=O)c2ccc3cn[nH]c3c2)CC1` the figure was 3.97 µM; with `CCN(Cc1ccccc1C(F)(F)F)C(=O)C1CCN(S(=O)(=O)c2ccc3[nH]ncc3c2)CC1`, 6.99 µM; with `CCN(Cc1ccccc1Cl)C(=O)C1CCN(S(=O)(=O)c2ccc3[nH]ncc3c2)CC1`, 2.52 µM.
Consider `CCN(C(=O)C1CCN(S(=O)(=O)c2ccc3[nH]ncc3c2)CC1)[C@H](C)c1ccccc1`, for which the EC50 is 5.28 µM.

Still in this assay, the particulars now being: CHO-K1 hM1, Fluo-4 calcium flux, ACh EC20 potentiation; at 30 µM (top of the series).
`CCN(C(=O)C1CCN(S(=O)(=O)c2ccc(OC)cc2)CC1)[C@H](C)c1ccccc1`: the “% of ACh max response” value was “inactive”.
